Species on record: Rattus norvegicus
Test: DrugMatrix - Regimen: Daily Repeat
Assay type: toxicity, organism-based, Sprague-Dawley
Set-up: regimen Daily Repeat, gender Male, age 6-8 weeks
Conditions: in vivo, po, route oral GAVAGE, vehicle 100 % SALINE
[1] = 0 mg/kg, 72 h, tissue Blood, dose level Control, time 3 day
[2] = 0 mg/kg, 72 h, tissue Plasma, dose level Control, time 3 day
[3] = 0 mg/kg, 120 h, tissue Blood, dose level Control, time 5 day
[4] = 0 mg/kg, 120 h, tissue Plasma, dose level Control, time 5 day
[5] = 200 mg/kg, 72 h, tissue Blood, dose level Low, time 3 day
[6] = 200 mg/kg, 72 h, tissue Plasma, dose level Low, time 3 day

Question: For LEAD(IV) ACETATE, which “ABSOLUTE BASOPHIL” value [1] is on record?
Answer: 0 CELLS/uL

Question: What about the “ABSOLUTE EOSINOPHIL” value [1] of the same substance?
Answer: 37 CELLS/uL

Question: And the “ABSOLUTE LYMPHOCYTE” value [1]?
Answer: 12359.33 CELLS/uL

Question: What about the “ABSOLUTE MONOCYTE” value [1] of the same substance?
Answer: 122.67 CELLS/uL

Question: What about the “ABSOLUTE SEGMENTED NEUTROPHIL” value [1] of the same substance?
Answer: 847.67 CELLS/uL

Question: And the BASOPHIL [1]?
Answer: 0%

Question: What about the EOSINOPHIL [1] of the same substance?
Answer: 0.33%

Question: What about the “ERYTHROCYTE COUNT” value [1] of the same substance?
Answer: 5.75 x10E6/uL

Question: And the HEMATOCRIT [1]?
Answer: 36.08%

Question: What about the “LEUKOCYTE COUNT” value [1] of the same substance?
Answer: 13.37 x10E3/uL

Question: What about the “MEAN CORPUSCULAR HEMOGLOBIN CONCENTRATION” value [1] of the same substance?
Answer: 38.98 G/DL

Question: What about the MONOCYTE [1] of the same substance?
Answer: 1%

Question: What about the NEUTROPHIL [1] of the same substance?
Answer: 6.17%

Question: And the “NUCLEATED RED BLOOD CELLS” value [1]?
Answer: 0.17 /100WBC

Question: And the “PLATELET COUNT” value [1]?
Answer: 1202.17 x10E3/uL

Question: And the “ALANINE AMINOTRANSFERASE” value [2]?
Answer: 50.67 u/L

Question: What about the “ALKALINE PHOSPHATASE” value [2] of the same substance?
Answer: 356.33 u/L

Question: What about the “ASPARTATE AMINOTRANSFERASE” value [2] of the same substance?
Answer: 78.17 u/L

Question: What about the “BLOOD UREA NITROGEN” value [2] of the same substance?
Answer: 14.17 mg/dL

Question: What about the “CARBON DIOXIDE” value [2] of the same substance?
Answer: 31.33 mmol/L

Question: What about the CHLORIDE [2] of the same substance?
Answer: 98.5 MEQ/L

Question: What about the CHOLESTEROL [2] of the same substance?
Answer: 76.5 mg/dL

Question: And the “CREATINE PHOSPHOKINASE” value [2]?
Answer: 248.33 u/L

Question: What about the CREATININE [2] of the same substance?
Answer: 0.2 mg/dL

Question: What about the “LACTATE DEHYDROGENASE” value [2] of the same substance?
Answer: 107 u/L

Question: And the LIPASE [2]?
Answer: 9.83 u/L

Question: And the PHOSPHORUS [2]?
Answer: 12.8 mg/dL

Question: What about the POTASSIUM [2] of the same substance?
Answer: 6.75 MEQ/L

Question: What about the “TOTAL BILIRUBIN” value [2] of the same substance?
Answer: 0.18 mg/dL

Question: And the “TOTAL PROTEIN” value [2]?
Answer: 5.98 G/DL

Question: And the “URIC ACID” value [2]?
Answer: 1.42 mg/dL

Question: And the “ABSOLUTE BASOPHIL” value [3]?
Answer: 0 CELLS/uL

Question: And the “ABSOLUTE EOSINOPHIL” value [3]?
Answer: 0 CELLS/uL

Question: And the “ABSOLUTE LYMPHOCYTE” value [3]?
Answer: 8681.17 CELLS/uL

Question: And the “ABSOLUTE MONOCYTE” value [3]?
Answer: 79.83 CELLS/uL

Question: What about the “ABSOLUTE SEGMENTED NEUTROPHIL” value [3] of the same substance?
Answer: 689 CELLS/uL

Question: What about the BASOPHIL [3] of the same substance?
Answer: 0%

Question: What about the EOSINOPHIL [3] of the same substance?
Answer: 0%

Question: And the “ERYTHROCYTE COUNT” value [3]?
Answer: 5.49 x10E6/uL

Question: What about the HEMATOCRIT [3] of the same substance?
Answer: 33.55%

Question: What about the HEMOGLOBIN [3] of the same substance?
Answer: 13.1 G/DL

Question: What about the “LEUKOCYTE COUNT” value [3] of the same substance?
Answer: 9.45 x10E3/uL

Question: And the LYMPHOCYTE [3]?
Answer: 92.33%

Question: And the “MEAN CORPUSCULAR HEMOGLOBIN” value [3]?
Answer: 23.92 pg

Question: What about the “MEAN CORPUSCULAR HEMOGLOBIN CONCENTRATION” value [3] of the same substance?
Answer: 39.07 G/DL

Question: And the MONOCYTE [3]?
Answer: 0.67%

Question: What about the NEUTROPHIL [3] of the same substance?
Answer: 7%

Question: And the “NUCLEATED RED BLOOD CELLS” value [3]?
Answer: 0.17 /100WBC

Question: What about the “PLATELET COUNT” value [3] of the same substance?
Answer: 1001.17 x10E3/uL

Question: What about the “ALANINE AMINOTRANSFERASE” value [4] of the same substance?
Answer: 49.33 u/L

Question: And the “ALKALINE PHOSPHATASE” value [4]?
Answer: 300.33 u/L

Question: And the “ASPARTATE AMINOTRANSFERASE” value [4]?
Answer: 83.5 u/L

Question: And the “BLOOD UREA NITROGEN” value [4]?
Answer: 16 mg/dL

Question: And the CHLORIDE [4]?
Answer: 100.5 MEQ/L

Question: What about the CHOLESTEROL [4] of the same substance?
Answer: 74.33 mg/dL

Question: What about the “CREATINE PHOSPHOKINASE” value [4] of the same substance?
Answer: 489.67 u/L

Question: What about the CREATININE [4] of the same substance?
Answer: 0.35 mg/dL

Question: What about the GLUCOSE [4] of the same substance?
Answer: 151 mg/dL

Question: What about the “LACTATE DEHYDROGENASE” value [4] of the same substance?
Answer: 133.67 u/L

Question: What about the LIPASE [4] of the same substance?
Answer: 11.17 u/L

Question: What about the PHOSPHORUS [4] of the same substance?
Answer: 10.88 mg/dL

Question: What about the POTASSIUM [4] of the same substance?
Answer: 5.5 MEQ/L

Question: And the SODIUM [4]?
Answer: 145.7 MEQ/L

Question: What about the “TOTAL BILIRUBIN” value [4] of the same substance?
Answer: 0.2 mg/dL

Question: What about the “TOTAL PROTEIN” value [4] of the same substance?
Answer: 6.05 G/DL

Question: And the “URIC ACID” value [4]?
Answer: 0.68 mg/dL

Question: What about the “ABSOLUTE BASOPHIL” value [5] of the same substance?
Answer: 0 CELLS/uL

Question: What about the “ABSOLUTE EOSINOPHIL” value [5] of the same substance?
Answer: 125.67 CELLS/uL

Question: And the “ABSOLUTE LYMPHOCYTE” value [5]?
Answer: 10005 CELLS/uL

Question: What about the “ABSOLUTE MONOCYTE” value [5] of the same substance?
Answer: 182.33 CELLS/uL

Question: What about the “ABSOLUTE SEGMENTED NEUTROPHIL” value [5] of the same substance?
Answer: 487 CELLS/uL

Question: What about the BASOPHIL [5] of the same substance?
Answer: 0%

Question: And the EOSINOPHIL [5]?
Answer: 1%

Question: What about the “ERYTHROCYTE COUNT” value [5] of the same substance?
Answer: 5.79 x10E6/uL

Question: And the HEMATOCRIT [5]?
Answer: 34.9%

Question: What about the HEMOGLOBIN [5] of the same substance?
Answer: 13.63 G/DL

Question: And the “LEUKOCYTE COUNT” value [5]?
Answer: 10.8 x10E3/uL

Question: And the LYMPHOCYTE [5]?
Answer: 92.67%

Question: What about the “MEAN CORPUSCULAR HEMOGLOBIN” value [5] of the same substance?
Answer: 23.53 pg

Question: What about the “MEAN CORPUSCULAR HEMOGLOBIN CONCENTRATION” value [5] of the same substance?
Answer: 39.07 G/DL

Question: And the “MEAN CORPUSCULAR VOLUME” value [5]?
Answer: 60.3 fL

Question: And the NEUTROPHIL [5]?
Answer: 5%

Question: What about the “NUCLEATED RED BLOOD CELLS” value [5] of the same substance?
Answer: 0 /100WBC

Question: What about the “PLATELET COUNT” value [5] of the same substance?
Answer: 964.33 x10E3/uL

Question: And the “ALANINE AMINOTRANSFERASE” value [6]?
Answer: 55.67 u/L

Question: What about the “ALKALINE PHOSPHATASE” value [6] of the same substance?
Answer: 341.67 u/L

Question: And the “ASPARTATE AMINOTRANSFERASE” value [6]?
Answer: 108 u/L

Question: What about the “BLOOD UREA NITROGEN” value [6] of the same substance?
Answer: 12.67 mg/dL

Question: What about the “CARBON DIOXIDE” value [6] of the same substance?
Answer: 29.33 mmol/L

Question: What about the CHLORIDE [6] of the same substance?
Answer: 100 MEQ/L

Question: And the CHOLESTEROL [6]?
Answer: 73.67 mg/dL

Question: What about the “CREATINE PHOSPHOKINASE” value [6] of the same substance?
Answer: 327.67 u/L

Question: And the CREATININE [6]?
Answer: 0.26 mg/dL

Question: And the GLUCOSE [6]?
Answer: 150.33 mg/dL

Question: And the “LACTATE DEHYDROGENASE” value [6]?
Answer: 126.67 u/L

Question: What about the LIPASE [6] of the same substance?
Answer: 14.33 u/L

Question: What about the POTASSIUM [6] of the same substance?
Answer: 6.03 MEQ/L

Question: And the “TOTAL BILIRUBIN” value [6]?
Answer: 0.0667 mg/dL

Question: What about the “TOTAL PROTEIN” value [6] of the same substance?
Answer: 5.93 G/DL

Question: And the “URIC ACID” value [6]?
Answer: 1.2 mg/dL

Source: ChEMBL document CHEMBL3885881, “DrugMatrix”
